Data set [1] relates to androgen signaling signature in LNCaP cells. Kind of data set: GE-HTS androgen signaling signature assay / screen. As to conditions: LNCaP, 1 nM R1881 plus compound ~20 μM, 24 hr; count of 3 replicates.
For data set [2], the system named is LNCaP cells. The experiment in a line: Viability screen, luminescent ATP quantitation assay. The following applies: 1 nM R1881 plus compound ~20 μM, 3 days.

The source of these data is patent US20110263693A1, “CELASTROL, GEDUNIN, AND DERIVATIVES THEREOF AS HSP90 INHIBITORS” (DANA-FARBER CANCER INSTITUTE, INC., priority 2006, published 2011).

“estrone hemisuccinate [reference compound]”: in data set [1], the “GE-HTS screen # replicates that score as the androgon deprived state (n = 3): KNN” value (shortened to “GE-HTS screen # replicates that score … KNN”) amounted to 3, the “GE-HTS screen # replicates that score as the androgon deprived state (n = 3): Naïve Bayes classifier (P < 0.05)” value is recorded as 3, the “GE-HTS screen # replicates that score as the androgon deprived state (n = 3): unweighted summed score (P < 0.05)” value is listed as 0 and the “GE-HTS screen # replicates that score as the androgon deprived state (n = 3): weighted summed score (P < 0.05)” value was 1. Further, in data set [2], the “viability screen: viability (% [ATP] normalized to R1881-treated control)” value was 71.9%.

As to `CC1(C)C(=O)C=C[C@]2(C)[C@H]3CC[C@@]4(C)[C@H](c5ccoc5)OC(=O)[C@H]5O[C@]54[C@]3(C)C(=O)C[C@@H]12` [deacetoxy-7-oxogedunin], in data set [1], the “GE-HTS screen # replicates that score … KNN” value is 3, the “GE-HTS screen # replicates that score as the androgon deprived state (n = 3): Naïve Bayes classifier (P < 0.05)” value is 3, the “GE-HTS screen # replicates that score as the androgon deprived state (n = 3): unweighted summed score (P < 0.05)” value is recorded as 3 and the “GE-HTS screen # replicates that score as the androgon deprived state (n = 3): weighted summed score (P < 0.05)” value turned out to be 3. Besides, the “viability screen: viability (% [ATP] normalized to R1881-treated control)” value in data set [2] is given as 69.0%.

In the case of dihydrocelastryl diacetate, in data set [1], the “GE-HTS screen # replicates that score … KNN” value is given as 2, the “GE-HTS screen # replicates that score as the androgon deprived state (n = 3): Naïve Bayes classifier (P < 0.05)” value was 0, the “GE-HTS screen # replicates that score as the androgon deprived state (n = 3): unweighted summed score (P < 0.05)” value is 3 and the “GE-HTS screen # replicates that score as the androgon deprived state (n = 3): weighted summed score (P < 0.05)” value is reported as 0. Moreover, the “viability screen: viability (% [ATP] normalized to R1881-treated control)” value in data set [2] was found to be 50.7%.

With `CC[C@@]1([C@@H]2O[C@@H]([C@H]3O[C@@](O)(CO)[C@H](C)C[C@@H]3C)C[C@@H]2C)CC[C@H]([C@]2(C)CC[C@]3(C[C@H](O)[C@@H](C)[C@@H]([C@@H](C)[C@@H](OC)[C@H](C)C(=O)O)O3)O2)O1` [monensin A, reference compound], in data set [1], the “GE-HTS screen # replicates that score … KNN” value amounted to 2, the “GE-HTS screen # replicates that score as the androgon deprived state (n = 3): Naïve Bayes classifier (P < 0.05)” value is listed as 2, the “GE-HTS screen # replicates that score as the androgon deprived state (n = 3): unweighted summed score (P < 0.05)” value is 0 and the “GE-HTS screen # replicates that score as the androgon deprived state (n = 3): weighted summed score (P < 0.05)” value came to 0. The “viability screen: viability (% [ATP] normalized to R1881-treated control)” value in data set [2] was 113.6%.

Turning to `CC(=O)O[C@@H]1C[C@H]2C(C)(C)C(=O)C=C[C@]2(C)[C@H]2CC[C@]3(C)C(=CC(=O)O[C@H]3c3ccoc3)[C@@]21C` [deoxygedunin], in data set [1], the “GE-HTS screen # replicates that score … KNN” value was 2, the “GE-HTS screen # replicates that score as the androgon deprived state (n = 3): Naïve Bayes classifier (P < 0.05)” value is listed as 2, the “GE-HTS screen # replicates that score as the androgon deprived state (n = 3): unweighted summed score (P < 0.05)” value amounted to 3 and the “GE-HTS screen # replicates that score as the androgon deprived state (n = 3): weighted summed score (P < 0.05)” value came out at 3. Moreover, in data set [2], the “viability screen: viability (% [ATP] normalized to R1881-treated control)” value amounted to 63.3%.
